Assay results published in patent US5691338A, “1,2-dithiole-3 thiones for the treatment of reverse transcriptase-dependent viral infections” (priority 1995, dated 1997).
Where a name gives a salt, the structure may show the parent alone. Read-outs that look alike come from different tables or passages of the source.

Key:
HIV-1 (HTLVIIIB) = assay: microbe, parasite or virus in culture; format: cell-based; conditions: H9 cells; for IC50: Human immunodeficiency virus 1
Procedure: (§2) The effects for test compounds were assessed by means of both IFA and p24 release. In general, the following protocol was followed: H9 cells were infected with HIV-1 at 1000 50% infective doses of viruses/10^6 cells. Virus was allowed to adsorb for 1 h, after which unadsorbed virus was removed by centrifugation. The cells were resuspended and washed twice with PBS (without Ca^+2 or Mg^+2 salts) and centrifuged to collect the cell pellet (150×g×10 min). Cells were suspended in fresh medium and added at a final cell density of 500,000 cells/ml in a 96-well plate with media containing 0.1% DMSO and various concentrations of test compounds. The cells were re-fed freshly prepared media containing 0.1% DMSO±test compounds on day four (for preinduction experiments, cells were exposed to inducers on days -2, 0, and +4 days relative to infection). After seven days, cells were examined for cytoxicity by trypan blue exclusion, the degree of infection with HIV-1 by IFA, and the supernatants were assayed for p24 levels according to the manufacturer's directions. The IFA procedure can be summarized as follows: The cells were washed twice in PBS and were placed in 5 mm 12-well slides. After allowing the slides to dry and fixing the cells with acetone for 5 min, 10 μl of HIV-1 positive serum in 40 μl PBS was added to each well and allowed to incubate at 37° C. for 30 min. After incubation, the slides were washed twice with PBS and incubated at 37° C. for 30 min with 2.5 μl goat anti-human IgG-fluorescein isothiocyanate conjugate in 50 μl PBS containing 0.01% Evans Blue per well. The slides were then washed twice with PBS, dried, and mounted with 50% glycerol in PBS, and scored for the percentage of fluorescent cells by fluorescent microscopy.

H9 cells = assay: Cytotoxicity in H9 cells by trypan blue exclusion; format: cell-based, human
Procedure: as §2

[1] = tested on: quinone reductase (QR) in H9 cells; assay: Elevation of quinone reductase (QR) in H9 cells; format: cell-based, human; conditions: dose- and time-dependent, H9 cells
Procedure: (§1) Five ml of medium was added to T-25 flasks and DMSO containing tests compounds were added to a final concentration of 0.1%. Control medium contained 0.1% DMSO. After the drugs were added, 5×10^6 cells in 5 ml of medium was added to each T-25 flask. The cells were grown at 37° C. in a humidified incubator supplemented with 5% CO2 until harvested (N=3 flasks/group). At the indicated times, cells were isolated by centrifugation (500×g×10 min) and were washed three times by adding 10 ml of ice-cold DPBS, mixing, and centrifuging in a refrigerated centrifuge (500×g×10 min) to isolate the cell pellets. The cells were then lysed by the addition of 400 μl of ice-cold DPBS containing 0.5% Triton X-100 and vortexing. Supernatants were then isolated by centrifuging the lysates (5000×g×20 min). Samples were kept on ice or refrigerated until the reagents for QR or GSH spectrophotometric assays were added to the aliquoted microtiter plates. QR levels were determined by aliquoting 10 μl/well of supernatant in a 96-well plate and measuring the activity by the assay described by Prochaska and Santamaria (20) except that the final NADP^+ concentration was 200 μM (21). Samples were assayed in quadruplicate, and dicoumarol inhibitable-rates (which generally represented less than 5% of the total rate) were also measured. Spectrophotometric blanks contained 10 μl of DPBS with 0.5% Triton X-100. For the GSH assay, 300 μl of sample was placed in a centricon-10microconcentrator and centrifuged (5000×g×45 min) until enough ultrafiltrate could be collected. 50 μl/well of sample in quadruplicate was placed in a 96 well "half-area" plate after which 20 μl of 1 mM Ellman's reagent dissolved in DPBS was added. The yellow color (22) developed within 5 min and was scanned with a uvmax microtiter scanner (Palo Alto, Calif.) at 405 nm. Spectrophotometric blanks contained 50 μl DPBS with 0.5% Triton X-100 and 20 μl of 1 mM Ellman's reagent in DPBS. The optical densities of the specimens were calibrated to a GSH standard curve. Protein contents were determined in 3 ml cuvettes by the Bradford method (23). The protein content in the ultrafiltrates employed for GSH determinations were negligible (<0.01 mg/ml).
We confirmed that the induction of QR in microtiter wells mirrored our results in T-25 flasks by using the method of Prochaska and Santamaria (20). Medium (100 μl) containing 0.1% final concentration DMSO was added to all wells except columns designated to contain the highest concentration of drug or spectrophotometric blanks in duplicate sets of U-bottomed microtiter plates. 200 μl of media containing drug (final DMSO concentration=0.1%) was added to the empty column of wells and then diluted in 2-fold serial dilutions across. After the serial dilutions were performed, 100 μl of media containing 1×10^6 cells/ml was added to each well, and the plates were placed in a 37° C. incubator for 48 h. One set of plates was assayed as described (21) for QR activity, the other was assayed for cell number by the method for Alley et al. (24).

[2] = tested on: glutathione levels (GSH) in H9 cells; assay: Elevation of glutathione (GSH) levels in H9 cells; format: cell-based, human; conditions: dose- and time-dependent, H9 cells
Procedure: as §1

[3] = Exp 1, IFA, read-out: IC50 HIV-1 replication (Exp 1)
[4] = Exp 2, IFA, read-out: IC50 HIV-1 replication (Exp 2)

IC50 (HIV-1 (HTLVIIIB); [3]) [nM] | IC50 (HIV-1 (HTLVIIIB); [4]) [nM] | Structure (SMILES) | further results
400 | 200 | OCc1c(-c2cnccn2)ssc1=S [compound 13] | –
15000 | 15000 | CCc1c(-c2cnccn2)ssc1=S [compound 14] | –
2000 | 2000 | CCCCc1c(-c2cnccn2)ssc1=S [compound 15] | –
1000 | 4000 | CCOC(=O)c1c(-c2ccccn2)ssc1=S [compound 16] | –
15000 | > 60000 | CCOC(=O)c1c(-c2ccncc2)ssc1=S [compound 17] | –
400 | > 60000 | CC(C)c1ccc(Nc2ssc(=S)c2Cl)cc1 [compound 18] | –
> 60000 | 1000 | CC(C)c1ccc(Nc2ssc(=O)c2Cl)cc1 [compound 19] | –
> 60000 | > 60000 | CCOC(=O)Cc1c(-c2cncnc2)ssc1=S [compound 20] | –
1000 | > 60000 | CC(C)N(C(=O)Cc1c(-c2cncnc2)ssc1=S)C(C)C [compound 21] | –
400 | > 60000 | S=c1ssc(-c2cccnn2)c1CCc1ccccc1 [compound 22] | –
400 | > 60000 | CN(C)CCCON=c1cc(-c2ccncc2)ss1 [compound 23] | –
– | – | CCCCc1c(-c2ccc(N(C)C)nn2)ssc1=S [compound 24] | IC50 HIV-1 replication (Exp 1) (HIV-1 (HTLVIIIB); Exp 1, IFA): Inactive; IC50 HIV-1 replication (Exp 2) (HIV-1 (HTLVIIIB); Exp 2, IFA): Inactive
– | – | COC(=O)/C=C/C(=O)OC [dimethyl fumarate] | inhibition of HIV-1 replication (HIV-1 (HTLVIIIB); up to 60 μM): inactive; cytotoxicity at optimal inductive doses (H9 cells): non-cytotoxic; elevation of QR [1]: able to elevate both GSH and QR levels; elevation of GSH [2]: able to elevate both GSH and QR levels
– | – | CC(C)(C)c1cc(O)ccc1O [tert-butylhydroquinone] | inhibition of HIV-1 replication (HIV-1 (HTLVIIIB); up to 30 μM): inactive; cytotoxicity at optimal inductive doses (H9 cells): non-cytotoxic; elevation of QR [1]: able to elevate both GSH and QR levels; elevation of GSH [2]: able to elevate both GSH and QR levels
